We go through 35 compounds from US9334263B2, “Compositions useful for treating disorders related to kit” (BLUEPRINT MEDICINES CORPORATION, priority 2013, dated 2016).

Structures are written as SMILES.

One assay concerns the target T1, D816V Kit (Homo sapiens, UniProt P10721, D816V).
T1 construct: purchased Carna Bioscience 08-156
In words: Kit D816V assay at Km (Caliper electrophoretic mobility shift). Format: biochemical. Conditions: 15 uM ATP, 25 C, 90 minutes. The essentials:
(§1)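 Read-out is the ratio of phosphorylated to unphosphorylated fluorescent peptide, resolved by mobility shift on a Caliper EZ Reader 2.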

A further assay has as its target T2, wild type Kit (Homo sapiens, UniProt P10721).
T2 construct: purchased Carna Bioscience 08-156
Kind of assay: Kit wild type assay at Km (Caliper electrophoretic mobility shift). It counts as biochemical. The conditions noted are these: 400 uM ATP, 25 C, 90 minutes; read-out: WT KIT. In short, it runs like this:
as §1

The next assay deals with T3, PDGFRA D842V (Homo sapiens, UniProt P16234, D842V).
T3 construct: purchased ProQinase 0761-0000-1
T3 sequence (P16234 24-1089 D842V): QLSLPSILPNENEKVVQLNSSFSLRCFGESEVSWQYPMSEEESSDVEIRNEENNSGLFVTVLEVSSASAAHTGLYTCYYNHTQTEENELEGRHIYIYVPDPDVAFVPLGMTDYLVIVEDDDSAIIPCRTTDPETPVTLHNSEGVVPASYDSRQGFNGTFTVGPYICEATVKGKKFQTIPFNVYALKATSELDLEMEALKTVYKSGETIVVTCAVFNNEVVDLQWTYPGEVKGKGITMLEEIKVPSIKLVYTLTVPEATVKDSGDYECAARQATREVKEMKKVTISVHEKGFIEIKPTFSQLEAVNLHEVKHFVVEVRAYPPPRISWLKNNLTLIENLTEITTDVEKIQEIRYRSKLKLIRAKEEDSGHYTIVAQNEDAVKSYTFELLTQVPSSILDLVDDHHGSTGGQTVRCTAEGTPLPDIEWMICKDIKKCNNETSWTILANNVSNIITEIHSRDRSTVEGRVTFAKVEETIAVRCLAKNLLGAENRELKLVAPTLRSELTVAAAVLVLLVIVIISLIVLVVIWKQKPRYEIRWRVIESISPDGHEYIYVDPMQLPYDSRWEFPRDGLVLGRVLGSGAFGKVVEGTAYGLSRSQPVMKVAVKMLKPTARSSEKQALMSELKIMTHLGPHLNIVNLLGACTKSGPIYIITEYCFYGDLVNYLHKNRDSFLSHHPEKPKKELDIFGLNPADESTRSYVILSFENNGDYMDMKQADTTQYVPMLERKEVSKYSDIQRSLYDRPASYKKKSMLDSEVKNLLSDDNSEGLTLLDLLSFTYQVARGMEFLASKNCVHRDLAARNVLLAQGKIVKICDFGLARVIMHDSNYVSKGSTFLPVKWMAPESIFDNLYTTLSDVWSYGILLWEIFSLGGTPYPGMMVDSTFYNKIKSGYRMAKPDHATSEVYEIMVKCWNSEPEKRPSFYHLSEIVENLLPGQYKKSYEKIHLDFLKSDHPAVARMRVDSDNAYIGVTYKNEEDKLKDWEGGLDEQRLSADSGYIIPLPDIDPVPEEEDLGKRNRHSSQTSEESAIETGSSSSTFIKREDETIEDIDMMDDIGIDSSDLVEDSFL
Kind of assay: PDGFRA D842V assay at Km (Caliper electrophoretic mobility shift). It counts as biochemical. The conditions noted are these: 15 uM ATP, 25 C, 90 minutes; read-out: PDFGRA D842V. The procedure: In order to assess the activity of chemical compounds against the relevant kinase of interest, the Caliper LifeSciences electrophoretic mobility shift technology platform is used. Fluorescently labeled substrate peptide is incubated in the presence of kinase and ATP so that a […] proportion of the peptide is phosphorylated. At the end of the reaction, the mix of phosphorylated (product) and non-phosphorylated (substrate) peptides are passed through the microfluidic system of the Caliper EZ Reader 2, under an applied potential difference. The presence of the phosphate group on the product peptide provides a difference in mass and charge between those of the substrate peptide, resulting in a separation of the substrate and product pools in the sample. As the pools pass a LEDS within the instrument, these pools are detected and resolved as separate peaks. The ratio between these peaks therefore reflects the activity of the chemical matter at that concentration in that well, under those conditions.
The reaction was stopped by the addition of 70 ul of Stop buffer (100 mM HEPES pH 7.5, 0.015% Brij 35, 35 mM EDTA and 0.2% of Coating Reagent 3 (Caliper Lifesciences)). The plate was then read on a Caliper EZReader 2 (protocol settings: −1.9 psi, upstream voltage −500, downstream voltage −3000, post sample sip 38 s).

Assay [1] addresses T4, Kit D816V (HMC1.2 cells, Kit V560G and D816V) (Homo sapiens, UniProt P10721, D816V/V560G).
T4 construct: endogenous in cells; host or cells: HMC1.2 cells
Kind of assay: HMC1.2 autophosphorylation assay (AlphaLISA, phospho-Y719 c-Kit). Format: cell-based. Conditions: Kit autophosphorylation at tyrosine 719, 90 minutes, read-out: Cellular Activity. In short, it runs like this:
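AlphaScreen signal comes from lysed HMC1.2 cells incubated with phospho-Y719 and total c-Kit antibodies (15 nM final), acceptor beads and then streptavidin donor beads, 2 h each at room temperature. Beforehand, cells deprived of serum overnight received compound for 90 min as a 10-point series, 25 uM–95.4 pM, 0.25% DMSO.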
In general terms: Alpha assays give light when donor and acceptor beads are brought close together.

T2 sequence (P10721 26-976): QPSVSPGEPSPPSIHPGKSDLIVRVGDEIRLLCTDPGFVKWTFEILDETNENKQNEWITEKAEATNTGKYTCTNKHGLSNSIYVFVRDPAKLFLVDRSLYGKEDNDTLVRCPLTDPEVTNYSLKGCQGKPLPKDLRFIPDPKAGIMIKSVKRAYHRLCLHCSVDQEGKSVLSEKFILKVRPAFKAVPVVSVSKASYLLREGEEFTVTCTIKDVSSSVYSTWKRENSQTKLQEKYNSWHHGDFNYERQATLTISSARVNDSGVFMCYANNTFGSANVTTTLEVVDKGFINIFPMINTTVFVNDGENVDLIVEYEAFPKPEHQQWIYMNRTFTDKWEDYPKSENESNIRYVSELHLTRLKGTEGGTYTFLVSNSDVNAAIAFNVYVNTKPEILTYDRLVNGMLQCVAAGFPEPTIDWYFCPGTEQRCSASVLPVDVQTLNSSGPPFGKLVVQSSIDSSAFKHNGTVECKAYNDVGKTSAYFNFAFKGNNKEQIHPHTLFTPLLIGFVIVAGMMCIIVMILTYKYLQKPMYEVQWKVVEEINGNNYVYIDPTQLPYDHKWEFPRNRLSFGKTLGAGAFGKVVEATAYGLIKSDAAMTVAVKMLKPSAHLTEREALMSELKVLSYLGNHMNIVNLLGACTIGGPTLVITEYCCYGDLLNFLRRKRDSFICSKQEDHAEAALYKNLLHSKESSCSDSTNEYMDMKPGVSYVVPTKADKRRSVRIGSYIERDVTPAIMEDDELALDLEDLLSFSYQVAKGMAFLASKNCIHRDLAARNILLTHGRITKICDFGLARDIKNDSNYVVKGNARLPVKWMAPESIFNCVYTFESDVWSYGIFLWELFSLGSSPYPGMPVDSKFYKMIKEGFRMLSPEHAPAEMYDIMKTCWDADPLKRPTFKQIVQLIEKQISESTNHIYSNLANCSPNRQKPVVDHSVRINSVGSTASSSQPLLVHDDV
T1 sequence (P10721 26-976 D816V): as the sequence (P10721 26-976) above, with D791V counted along it
T4 sequence (P10721 26-976 V560G/D816V): as the sequence (P10721 26-976) above, with V535G, D791V counted along it

Turning to `c1ccc(Cc2cnc(N3CCN(c4ncnc(Nc5ccc(O[C@@H]6CCCNC6)cc5)n4)CC3)nc2)cc1` [Compound 161], the IC50 was less than 1 nM on D816V Kit, less than 10 nM at wild type Kit, 1.01 to 10 nM on PDGFRA D842V and less than 10 nM in assay [1].

Consider `OC[C@@H](O)c1ccc(Nc2ncnc(N3CCN(c4ncc(Cc5ccccc5)cn4)CC3)n2)cc1` (single isomer, unassigned) [Compound 56], for which the results for the IC50 (at D816V Kit; at PDGFRA D842V; in assay [1]) were less than 1 nM, less than 1 nM and 10 to 100 nM, respectively.

In the case of `c1ccc(Oc2cnc(N3CCN(c4ncnc(Nc5ccc6c(c5)CNCC6)n4)CC3)nc2)cc1` [Compound 46], the IC50 is less than 1 nM on D816V Kit, less than 10 nM at wild type Kit, 1.01 to 10 nM at PDGFRA D842V and 10 to 100 nM in assay [1].

With `Cn1cc(Nc2ncnc(N3CCN(c4ncc(Cc5ccccc5)cn4)CC3)n2)cn1` [Compound 10], the IC50 at D816V Kit is less than 1 nM; on wild type Kit, 11 to 100 nM; on PDGFRA D842V, 1.01 to 10 nM; in assay [1] it was 100 to 1000 nM.

On to `c1ccc(Cc2cnc(N3CCN(c4ncnc(Nc5cnn(CC6CCNCC6)c5)n4)CC3)nc2)cc1` [Compound 116], for which the IC50 is less than 1 nM at D816V Kit, less than 10 nM on wild type Kit, less than 1 nM on PDGFRA D842V and 10 to 100 nM in assay [1].

Consider `CNCCn1cc(Nc2ncnc(N3CCN(c4ncc(Cc5ccccc5)cn4)CC3)n2)cn1` [Compound 30], for which the IC50 was less than 1 nM on D816V Kit, 11 to 100 nM at wild type Kit, less than 1 nM at PDGFRA D842V and 10 to 100 nM in assay [1].

Turning to `O=C1CCc2ccc(Nc3ncnc(N4CCN(c5ncc(Cc6ccccc6)cn5)CC4)n3)cc2N1` [Compound 68], the IC50 is 1.01 to 10 nM on D816V Kit, 11 to 100 nM at wild type Kit, less than 1 nM at PDGFRA D842V and 10 to 100 nM in assay [1].

For `CNC(C)c1cccc(Nc2ncnc(N3CCN(c4ncc(Cc5ccccc5)cn4)CC3)n2)c1` (stereo not drawn) [Compound 48], the IC50 is less than 1 nM at D816V Kit, less than 10 nM on wild type Kit, less than 1 nM at PDGFRA D842V and 10 to 100 nM in assay [1].

For the compound `c1ccc(Cc2cnc(N3CCN(c4ncnc(Nc5cnn([C@H]6CCNC6)c5)n4)CC3)nc2)cc1` [Compound 52], the IC50 at D816V Kit was less than 1 nM; at wild type Kit, less than 10 nM; at PDGFRA D842V it was less than 1 nM; in assay [1], 10 to 100 nM.

Turning to `Fc1ccc(Sc2cnc(N3CCN(c4ncnc(Nc5cnn(C[C@@H]6CNCCO6)c5)n4)CC3)nc2)cc1` [Compound 256], the IC50 on D816V Kit was less than 1 nM; at PDGFRA D842V, 1.01 to 10 nM; in assay [1], 10 to 100 nM.

`C[C@H](O)Cn1cc(Nc2ncnc(N3CCN(c4ncc(Sc5ccc(F)cc5)cn4)CC3)n2)cn1` [Compound 101]: the IC50 at D816V Kit is less than 1 nM; on PDGFRA D842V, less than 1 nM; in assay [1], less than 10 nM.

In the case of `OC[C@H](O)c1ccc(Nc2ncnc(N3CCN(c4ncc(Cc5ccccc5)cn4)CC3)n2)cc1` (single isomer, unassigned) [Compound 57], the IC50 is less than 1 nM at D816V Kit, 1.01 to 10 nM at PDGFRA D842V and 10 to 100 nM in assay [1].

For the compound `CC(C)(c1ccccc1)c1cnc(N2CCN(c3ncnc(Nc4ccc(N5CCC[C@@H](O)C5)cc4)n3)CC2)nc1` [Compound 263], the IC50 fell in the range of 1.01 to 10 nM on D816V Kit, 1.01 to 10 nM at PDGFRA D842V and 10 to 100 nM in assay [1].

Consider `c1ccc(Cc2cnc(N3CCN(c4ncnc(Nc5cccc(O[C@@H]6CCNC6)c5)n4)CC3)nc2)cc1` [Compound 106], for which the IC50 at PDGFRA D842V is 1.01 to 10 nM.

With `O[C@@H]1CCCN(c2ccc(Nc3ncnc(N4CCN(c5ncc(Cc6ccc(F)cc6)cn5)CC4)n3)cc2)C1` [Compound 239], the IC50 fell in the range of 1.01 to 10 nM on D816V Kit, 1.01 to 10 nM at PDGFRA D842V and 10 to 100 nM in assay [1].

As to `CN1CCN(Cc2cccc(Nc3ncnc(N4CCN(c5ncc(Cc6ccccc6)cn5)CC4)n3)c2)CC1` [Compound 211], the results for the IC50 (on D816V Kit; on PDGFRA D842V; in assay [1]) were less than 1 nM, 1.01 to 10 nM and 10 to 100 nM, respectively.

Turning to `C[C@]1(O)CCCN(c2ccc(Nc3ncnc(N4CCN(c5ncc(Cc6ccccc6)cn5)CC4)n3)cc2)C1` (single isomer, unassigned) [Compound 226], the IC50 at D816V Kit is 1.01 to 10 nM; at PDGFRA D842V, 1.01 to 10 nM; in assay [1], 10 to 100 nM.

As to `c1ccc(Cc2cnc(N3CCN(c4ncnc(Nc5cccc(N6CCOCC6)c5)n4)CC3)nc2)cc1` [Compound 104], the IC50 on D816V Kit was 1.01 to 10 nM; on wild type Kit, 11 to 100 nM; in assay [1] it was 100 to 1000 nM.

As for `c1ccc(Cc2cnc(N3CCN(c4ncnc(Nc5cnn(CC6CNC6)c5)n4)CC3)nc2)cc1` [Compound 51], the IC50 is less than 1 nM at D816V Kit, 11 to 100 nM on wild type Kit and 10 to 100 nM in assay [1].

As for `FC(F)(F)CN1CCc2ccc(Nc3ncnc(N4CCN(c5ncc(Cc6ccccc6)cn5)CC4)n3)cc2C1` [Compound 268], the figures for the IC50 (at D816V Kit; at wild type Kit; in assay [1]) were 1.01 to 10 nM, 100 to 1000 nM and 100 to 1000 nM, respectively.

For the compound `OC[C@H]1CCCN1c1ccc(Nc2ncnc(N3CCN(c4ncc(Cc5ccccc5)cn4)CC3)n2)cc1` [Compound 167], the IC50 at D816V Kit lay in the range of 1.01 to 10 nM; on wild type Kit it was 100 to 1000 nM; in assay [1], 10 to 100 nM.

As for `CN(C)[C@H]1CCN(Cc2cccc(Nc3ncnc(N4CCN(c5ncc(Cc6ccccc6)cn5)CC4)n3)c2)C1` [Compound 260], the IC50 on D816V Kit is less than 1 nM; on wild type Kit it was less than 10 nM; in assay [1] it was 10 to 100 nM.

On to `FC1(Cn2cc(Nc3ncnc(N4CCN(c5ncc(Cc6ccccc6)cn5)CC4)n3)cn2)CCNCC1` [Compound 191], for which the values for the IC50 (at D816V Kit; on wild type Kit; in assay [1]) were less than 1 nM, less than 10 nM and less than 10 nM, respectively.

Regarding `c1ccc(Cc2cnc(N3CCN(c4ncnc(Nc5ccc6c(c5)CNCC6)n4)CC3)nc2)cc1` [Compound 41], the IC50 at D816V Kit is less than 1 nM; at wild type Kit, less than 10 nM; in assay [1], 10 to 100 nM.

As for `NCc1cccc(Nc2ncnc(N3CCN(c4ncc(Cc5ccccc5)cn4)CC3)n2)c1` [Compound 14], the figures for the IC50 (at D816V Kit; on wild type Kit; in assay [1]) were less than 1 nM, 11 to 100 nM and 100 to 1000 nM, respectively.

On to `c1ccc(Cc2cnc(N3CCN(c4ncnc(Nc5ccc6c(c5)CNCCO6)n4)CC3)nc2)cc1` [Compound 76], for which the IC50 on D816V Kit was less than 1 nM; at wild type Kit it was less than 10 nM; in assay [1] it was 10 to 100 nM.

`c1ccc(Cc2cnc(N3CCN(c4ncnc(Nc5cccc(CN6CCOCC6)c5)n4)CC3)nc2)cc1` [Compound 160]: the IC50 on D816V Kit is 1.01 to 10 nM; on wild type Kit, 11 to 100 nM; in assay [1], 100 to 1000 nM.

On to `C[C@@H]1CN(c2ncnc(Nc3ccc(N4CCOCC4)cc3)n2)CCN1c1ncc(Cc2ccccc2)cn1` [Compound 159], for which the values for the IC50 (at D816V Kit; on wild type Kit; in assay [1]) were 1.01 to 10 nM, 11 to 100 nM and 100 to 1000 nM, respectively.

As to `CC(C)(O)Cn1cc(Nc2ncnc(N3CCN(c4ncc(Sc5ccc(F)cc5)cn4)CC3)n2)cn1` [Compound 149], the values for the IC50 (on D816V Kit; on PDGFRA D842V; in assay [1]) were less than 1 nM, 1.01 to 10 nM and 10 to 100 nM, respectively.

`NC(=O)c1cccc(Nc2ncnc(N3CCN(c4ncc(Cc5ccccc5)cn4)CC3)n2)c1` [Compound 23]: the results for the IC50 (at D816V Kit; on wild type Kit; in assay [1]) were 1.01 to 10 nM, 11 to 100 nM and 100 to 1000 nM, respectively.

With `c1ccc(Cc2cnc(N3CCN(c4ncnc(Nc5ccc(OC[C@H]6CCCN6)cc5)n4)CC3)nc2)cc1` [Compound 169], the IC50 on D816V Kit was less than 1 nM; on wild type Kit, 11 to 100 nM; in assay [1], 10 to 100 nM.

With `CN1CCC[C@@H](Oc2ccc(Nc3ncnc(N4CCN(c5ncc(Cc6ccccc6)cn5)CC4)n3)cc2)C1` [Compound 216], the IC50 is less than 1 nM on D816V Kit, less than 10 nM on wild type Kit and less than 10 nM in assay [1].

On to `OC1(Cn2cc(Nc3ncnc(N4CCN(c5ncc(Cc6ccccc6)cn5)CC4)n3)cn2)CCNCC1` [Compound 182], for which the results for the IC50 (at D816V Kit; at wild type Kit; in assay [1]) were less than 1 nM, 11 to 100 nM and 10 to 100 nM, respectively.

For `Cc1c(Nc2ncnc(N3CCN(c4ncc(Cc5ccc(F)cc5)cn4)CC3)n2)cnn1C[C@@H]1CNCCO1` [Compound 271], the IC50 was 1.01 to 10 nM at D816V Kit, 1.01 to 10 nM on PDGFRA D842V and less than 10 nM in assay [1].

`CN1CCC[C@H]1COc1ccc(Nc2ncnc(N3CCN(c4ncc(Cc5ccccc5)cn4)CC3)n2)cc1` [Compound 219]: the IC50 at D816V Kit was less than 1 nM; at wild type Kit, less than 10 nM; in assay [1], 10 to 100 nM.
